Assay results taken from patent US12247032B2, “Substituted pyrazolo[1,5-a]pyrimidines as inhibitors of JAK kinases” (Genentech, Inc., priority 2019, dated 2025).
Where two headings read alike, the source gives them in different places.

Columns and labels:
[1] = target: T1, Recombinant human JAK2 kinase domain protein (Residues 812-1132) (Homo sapiens, UniProt O60674); test: JAK2 biochemical assay (microfluidic mobility shift, peptide phosphorylation); conditions: 25 μM ATP, 0.2 nM total JAK2; Ki calculated from Ki app (tight-binding, competitive); read-out: Biochem JAK2 Ki
T1 construct: human JAK2 kinase domain protein (Residues 812-1132); made in house; host or cells: insect cells
T1 sequence (O60674 812-1132): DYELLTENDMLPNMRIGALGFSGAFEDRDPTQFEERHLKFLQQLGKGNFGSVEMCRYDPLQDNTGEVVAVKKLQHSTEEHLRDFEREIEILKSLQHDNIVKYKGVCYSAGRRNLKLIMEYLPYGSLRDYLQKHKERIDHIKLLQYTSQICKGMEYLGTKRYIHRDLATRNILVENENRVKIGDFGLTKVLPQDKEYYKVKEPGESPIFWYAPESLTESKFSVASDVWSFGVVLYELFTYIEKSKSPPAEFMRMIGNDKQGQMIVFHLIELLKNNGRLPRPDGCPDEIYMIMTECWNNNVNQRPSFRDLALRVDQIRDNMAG
Experimental: (§1) The in vitro biochemical assays quantify JAK-catalyzed phosphorylation of a synthetic peptide, as detected using a LabChip® EZ Reader II microfluidic mobility shift instrument (PerkinElmer; Waltham, MA). The substrate peptide Y-1B has the sequence 5-FAM-VALVDGYFRLTT-NH2. Y-1B is fluorescently labeled on the N-terminus with 5-FAM (5-carboxyfluorescein) and contains a single tyrosine residue (Y) that can be phosphorylated by JAK activity. The substrate peptide stock is prepared in DMSO at 5 mM. Purified recombinant human JAK1 kinase domain protein (Residues 854-1154) was expressed in insect cells and procured from Proteros Biostructures GmbH (Martinsried, Germany). Recombinant human JAK2 kinase domain protein (Residues 812-1132) was expressed in insect cells and purified at Genentech, Inc. (South San Francisco, CA).
(§2) The kinase reaction mixtures contained 100 mM 4-(2-hydroxyethyl)-1-piperazineethanesulfonic acid (HEPES) buffer (pH 7.2), 10 mM magnesium chloride, 0.015% Brij® 35, 4 mM dithiothreitol, 1.5 μM Y-1B peptide substrate, 25 μM adenosine triphosphate (ATP), 1 nM total JAK1 or 0.2 nM total JAK2, and up to 1000 nM test compound in a final concentration of 2% (volume to volume [v/v]) DMSO. In each titration experiment, test compound was tested in duplicate at each of the twelve concentrations. Blank reactions contained ATP, peptide, and DMSO, but no JAK or test compound, whereas uninhibited control reactions contained ATP, peptide, JAK, and DMSO, but no test compound.
(§3) Peptide plus ATP mixture (24 μL) was added to 1 μL of test compound in DMSO (or DMSO alone). The reactions were initiated by adding 25 μL of JAK enzyme to the inhibitor/peptide/ATP mixture before thoroughly mixing the resultant solution. Reactions were incubated at room temperature (22° C.-23° C.) in a final volume of 50 μL per well in 384-well plates. After a 30-minute incubation, the reactions were stopped by adding 25 μL of 150 mM ethylenediaminetetraacetic acid in 100 mM HEPES buffer (pH 7.2) containing 0.015% Brij 35 to each well.
(§4) In each reaction, the residual Y-1B substrate and the phospho-peptide product generated were separated using the EZ Reader 1 instrument. Electrophoretic separation of molecules of product from molecules of substrate was achieved using downstream and upstream voltages of −500 and −2600 V, respectively, at an operating pressure of −1.3 psi. The 5-FAM group present on both the substrate and product peptides was excited at 488 nm, the fluorescence was detected at 530 nm, and the peak heights were reported.
(§5) The extent (or percent) of conversion of substrate to product was calculated from the corresponding peak heights in the electropherogram using HTS Well Analyzer software, Version 5.2 (PerkinElmer), and the following equation (Equation 1): % conversion=[P[…](S+P)]×100 Equation 1 where S and P represent the peak heights of the substrate and product, respectively. After any baseline signal from blank wells containing no JAK was subtracted from the signal of all test wells, the % conversion data were converted to fractional activity as shown in Equation 2, where νi and νo are the % conversion in the presence and absence of test compound, respectively. The % conversion observed in the uninhibited control reactions containing JAK and DMSO vehicle, but no test compound, was defined to have fractional activity=1 (with no inhibitor present, νi=νo), whereas blank wells with no JAK were defined as having fractional activity=0. Fractional activity was plotted against test compound concentration and the data were fitted using XLfit software (IDBS; Guildford, United Kingdom) to a tight-binding apparent inhibition constant (Ki^app) quadratic equation (see Equation 2) (Williams J W, Morrison J F. The kinetics of reversible tight-binding inhibition. Methods Enymol 1979; 63:437-67), which was used to calculate fractional activity and Ki^app […]

[2] = system: JAK1 (IL-13-stimulated STAT6 phosphorylation in BEAS-2B cells); test: P-STAT6 BEAS-2B+IL-13 cell assay; format: cell-based, human; conditions: 1 hour compound, IL-13 15 minutes, IC50 by four-parameter fit, read-out: Cellular JAK1 PSTAT6 BEAS2B + IL13
Experimental: In order to study the effect of JAK1 inhibitors in a cell line that is relevant to the cell biology of human asthma, an IL-13-stimulated STAT6 phosphorylation assay in the human lung bronchial epithelial BEAS-2B cell line was developed.
BEAS-2B cells (ATCC® CRL-9609™) were grown in Bronchial Epithelial Growth Medium (BEGM) (Lonza Catalog No. CC-3170; Walkersville, MD; or PromoCell Catalog No. C-21060; Heidelberg, Germany). Test compound stock solutions (0.5 mM in DMSO) were serially diluted 1:2 in DMSO to generate a 10-point concentration curve (at 500× test concentration), which was further diluted by a 50-fold dilution step in BEGM to generate a 10× concentration curve (in 2% DMSO). Cells were plated at 100,000 cells/well in 200 μL of BEGM in 96-well plates and incubated for 48 hours at 37° C. in a humidified incubator. Medium was aspirated from the cells and replaced with 70 μL of fresh BEGM. Diluted test compound (10 μL; or 2% DMSO in assay medium) was added to the cells, and the plates were incubated for 1 hour at 37° C. in a humidified incubator. Twenty μL of 250 ng/mL human recombinant IL-13 (Bio Techne Catalog No. 213-ILB) was then added to the cells and incubated for 15 minutes at 37° C. Medium was aspirated from the cells and 60 μL of ice-cold 1×cell lysis buffer (Cell Signaling Technologies; Catalog No. 9803S) containing 1 mM PMSF was added to the cells. Assay plates were incubated at −80° C. for at least 1 hour. P-STAT6 was measured by coating GAR plates (MSD; Catalog No. L45RA-1) with rabbit anti-human total STAT6 antibody (Cell Signaling Technologies; Catalog No. 9362S), incubating the cell lysates in the coated plates overnight at 4° C., and then detecting with mouse anti-phospho-STAT6 (Tyr641) Clone 16E12 antibody (Millipore; Catalog No. 05-590, custom labeled by MSD with SULFO-tag) using standard MSD plate processing, washing, and detection protocols. Plates were read on the MESO SECTOR S600.
Data analysis was performed by subtracting negative control values from all wells and determining percent of control using the positive control values; the IC50 was determined with a four-parameter logistic fit model as shown in Equation 4.

[3] = target: T2, recombinant human JAK1 kinase domain protein (Residues 854-1154) (Homo sapiens, UniProt P23458); test: JAK1 biochemical assay (microfluidic mobility shift, peptide phosphorylation); conditions: 25 μM ATP, 1 nM total JAK1; Ki calculated from Ki app (tight-binding, competitive); read-out: Biochem JAK1 Ki
T2 construct: human JAK1 kinase domain protein (Residues 854-1154); purchased Proteros Biostructures GmbH (Martinsried, Germany); host or cells: insect cells
T2 sequence (P23458 854-1154): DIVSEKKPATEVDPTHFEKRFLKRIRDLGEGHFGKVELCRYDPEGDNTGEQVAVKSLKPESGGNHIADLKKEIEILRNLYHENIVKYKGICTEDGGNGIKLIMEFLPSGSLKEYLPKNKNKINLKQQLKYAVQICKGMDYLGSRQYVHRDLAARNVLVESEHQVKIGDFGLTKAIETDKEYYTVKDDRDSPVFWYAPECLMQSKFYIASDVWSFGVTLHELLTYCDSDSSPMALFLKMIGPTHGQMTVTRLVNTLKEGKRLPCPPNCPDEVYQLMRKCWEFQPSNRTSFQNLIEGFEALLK
Experimental: as §1, §2, §3, §4, §5

| Ki [1] | Ki [3] | SMILES | IC50 ([2]; Homo sapiens, BEAS-2B, 1 h) | IC50 [2] |
| --- | --- | --- | --- | --- |
| 0.4 nM | 0.49 nM | CN1CCC[C@H]1CN1CC(n2nnc(Cn3cc(NC(=O)c4cnn5cccnc45)c(-c4cc(OC(F)F)ccc4OC(F)F)n3)n2)C1 (racemic) [Example 46, N-[3-[2,5-bis(difluoromethoxy)phenyl]-1-[[2-[1-[[rac-(2S)-1-methylpyrrolidin-2-yl]methyl]azetidin-3-yl]tetrazol-5-yl]methyl]pyrazol-4-yl]pyrazolo[1,5-a]pyrimidine-3-carboxamide; formic acid] | 18 nM | – |
| 0.39 nM | 0.38 nM | CN1CCC[C@H]1CN1CC(n2nnc(Cn3cc(NC(=O)c4cnn5cccnc45)c(-c4cc(OC(F)F)ccc4OC(F)F)n3)n2)C1 (racemic) [Example 52, N-[3-[2,5-bis(difluoromethoxy)phenyl]-1-[[2-[1-[[rac-(2R)-1-methylpyrrolidin-2-yl]methyl]azetidin-3-yl]tetrazol-5-yl]methyl]pyrazol-4-yl]pyrazolo[1,5-a]pyrimidine-3-carboxamide] | – | 19 nM |
| 0.45 nM | 0.75 nM | CN1CCC[C@H]1Cn1nnnc1Cn1cc(NC(=O)c2cnn3cccnc23)c(-c2cc(OC(F)F)ccc2OC(F)F)n1 (racemic) [Example 54, N-[3-[2,5-bis(difluoromethoxy)phenyl]-1-[[1-[[rac-(2S)-1-methylpyrrolidin-2-yl]methyl]tetrazol-5-yl]methyl]pyrazol-4-yl]pyrazolo[1,5-a]pyrimidine-3-carboxamide] | 51 nM | – |
| 0.25 nM | 0.43 nM | CN1CCC(n2nnc(Cn3cc(NC(=O)c4cnn5cccnc45)c(-c4cc(OC(F)F)ccc4OC(F)F)n3)n2)C1 (single isomer, unassigned) [Example 29, N-[3-[2,5-bis(difluoromethoxy)phenyl]-1-[[2-(1-methylpyrrolidin-3-yl)tetrazol-5-yl]methyl]pyrazol-4-yl]pyrazolo[1,5-a]pyrimidine-3-carboxamide] | 15 nM | – |
| 0.31 nM | 0.4 nM | CN1CCC(n2nnc(Cn3cc(NC(=O)c4cnn5cccnc45)c(-c4cc(OC(F)F)ccc4OC(F)F)n3)n2)C1 (single isomer, unassigned) [Example 30, N-[3-[2,5-bis(difluoromethoxy)phenyl]-1-[[2-(1-methylpyrrolidin-3-yl)tetrazol-5-yl]methyl]pyrazol-4-yl]pyrazolo[1,5-a]pyrimidine-3-carboxamide] | – | 17 nM |
| 0.42 nM | 0.53 nM | CN(C)CCN1CCC(n2nnc(Cn3cc(NC(=O)c4cnn5cccnc45)c(-c4cc(OC(F)F)ccc4OC(F)F)n3)n2)C1 (single isomer, unassigned) [Example 67, N-[3-[2,5-bis(difluoromethoxy)phenyl]-1-[[2-[1-[2-(dimethylamino)ethyl]pyrrolidin-3-yl]tetrazol-5-yl]methyl]pyrazol-4-yl]pyrazolo[1,5-a]pyrimidine-3-carboxamide] | 56 nM | – |
| 0.43 nM | 0.46 nM | CN(C)CCN1CCC(n2nnc(Cn3cc(NC(=O)c4cnn5cccnc45)c(-c4cc(OC(F)F)ccc4OC(F)F)n3)n2)C1 (single isomer, unassigned) [Example 68, N-[3-[2,5-bis(difluoromethoxy)phenyl]-1-[[2-[1-[2-(dimethylamino)ethyl]pyrrolidin-3-yl]tetrazol-5-yl]methyl]pyrazol-4-yl]pyrazolo[1,5-a]pyrimidine-3-carboxamide] | – | 41 nM |
| 0.55 nM | 0.64 nM | CN1CCC(N2CC(n3nnc(Cn4cc(NC(=O)c5cnn6cccnc56)c(-c5cc(OC(F)F)ccc5OC(F)F)n4)n3)C2)C1 (single isomer, unassigned) [Example 73, N-[3-[2,5-bis(difluoromethoxy)phenyl]-1-[[2-[1-(1-methylpyrrolidin-3-yl)azetidin-3-yl]tetrazol-5-yl]methyl]pyrazol-4-yl]pyrazolo[1,5-a]pyrimidine-3-carboxamide] | – | 43 nM |
| 0.47 nM | 0.55 nM | CN(C)C1CCC(N2CC(n3nnc(Cn4cc(NC(=O)c5cnn6cccnc56)c(-c5cc(OC(F)F)ccc5OC(F)F)n4)n3)C2)C1 (single isomer, unassigned) [Example 74, N-[3-[2,5-bis(difluoromethoxy)phenyl]-1-[[2-[1-[3-(dimethylamino)cyclopentyl]azetidin-3-yl]tetrazol-5-yl]methyl]pyrazol-4-yl]pyrazolo[1,5-a]pyrimidine-3-carboxamide] | – | 93 nM |
| 1.1 nM | 1.1 nM | CN(C)C1CCC(N2CC(n3nnc(Cn4cc(NC(=O)c5cnn6cccnc56)c(-c5cc(OC(F)F)ccc5OC(F)F)n4)n3)C2)C1 (single isomer, unassigned) [Example 75, N-[3-[2,5-bis(difluoromethoxy)phenyl]-1-[[2-[1-[3-(dimethylamino)cyclopentyl]azetidin-3-yl]tetrazol-5-yl]methyl]pyrazol-4-yl]pyrazolo[1,5-a]pyrimidine-3-carboxamide] | – | 200 nM |
